According to US20130236656A1, “SELF-REDUCED METAL COMPLEX INKS SOLUBLE IN POLAR PROTIC SOLVENTS AND IMPROVED CURING METHODS” (LIQUID X PRINTED METALS, INC., priority 2012, published 2013):

Settings: isolated solid

Question: Which “hygroscopicity (hydroscopic [sic])” value does the source give for `CC(C)C(=O)[O-].NCCN.[Ag+]` [ethylenediamine silver isobutyrate] here?
Answer: hydroscopic
